Test results: PubChem BioAssay AID248 (DTP/NCI, 2004)
Values joined by “and” are separate entries in the source; they are usually repeats but may differ in a detail not shown here. Identical values can stand only once. Toxic doses and inconclusive results are not listed. Rule as the data show it: active = T/C of 150% or more; inactive = T/C below 125%.

Tested on: L1210 leukemia ip in BDF1 mice, survival T/C
Test: NCI In Vivo Anticancer Drug Screen. Data for tumor model L1210 Leukemia (intraperitoneal) in B6D2F1 (BDF1) mice
Details: endpoint: mean survival time, higher = longer survival
Method in brief: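 Survival endpoint. Drug-treated group vs vehicle group, expressed as T divided by C. Tumor passaged by transplantation.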

[1] = dose: 100.0 mg/kg/injection, schedule: Q01DX009 (ip), vehicle: saline
[2] = dose: 100.0 mg/kg/injection, schedule: Q04DX003 (ip), vehicle: saline
[3] = dose: 200.0 mg/kg/injection, schedule: Q04DX003 (ip), vehicle: saline
[4] = dose: 400.0 mg/kg/injection, schedule: Q01DX009 (ip), vehicle: saline
[5] = dose: 400.0 mg/kg/injection, schedule: Q04DX003 (ip), vehicle: saline
[6] = dose: 100.0 mg/kg/injection, schedule: Q01DX009 (ip), vehicle: Klucel (hydroxypropylcellulose) (HPC)
[7] = dose: 100.0 mg/kg/injection, schedule: Q04DX003 (ip), vehicle: Klucel (hydroxypropylcellulose) (HPC)
[8] = dose: 200.0 mg/kg/injection, schedule: Q01DX009 (ip), vehicle: Klucel (hydroxypropylcellulose) (HPC)
[9] = dose: 200.0 mg/kg/injection, schedule: Q04DX003 (ip), vehicle: Klucel (hydroxypropylcellulose) (HPC)
[10] = dose: 400.0 mg/kg/injection, schedule: Q01DX009 (ip), vehicle: Klucel (hydroxypropylcellulose) (HPC)
[11] = dose: 400.0 mg/kg/injection, schedule: Q04DX003 (ip), vehicle: Klucel (hydroxypropylcellulose) (HPC)
[12] = dose: 25.0 mg/kg/injection, schedule: Q01DX009 (ip), vehicle: Klucel (hydroxypropylcellulose) (HPC)
[13] = dose: 50.0 mg/kg/injection, schedule: Q01DX009 (ip), vehicle: Klucel (hydroxypropylcellulose) (HPC)
[14] = dose: 200.0 mg/kg/injection, schedule: Q01DX009 (ip), vehicle: gum acacia
[15] = dose: 100.0 mg/kg/injection, schedule: Q04DX003 (ip), vehicle: saline with Tween-80
[16] = dose: 200.0 mg/kg/injection, schedule: Q04DX003 (ip), vehicle: saline with Tween-80
[17] = dose: 100.0 mg/kg/injection, schedule: Q01DX001 (ip), vehicle: other
[18] = dose: 200.0 mg/kg/injection, schedule: Q01DX001 (ip), vehicle: other
[19] = dose: 400.0 mg/kg/injection, schedule: Q01DX001 (ip), vehicle: other
[20] = dose: 100.0 mg/kg/injection, schedule: Q01DX009 (ip), vehicle: saline with Tween-80
[21] = dose: 200.0 mg/kg/injection, schedule: Q01DX009 (ip), vehicle: saline with Tween-80
[22] = dose: 400.0 mg/kg/injection, schedule: Q01DX009 (ip), vehicle: saline with Tween-80
[23] = dose: 400.0 mg/kg/injection, schedule: Q04DX003 (ip), vehicle: saline with Tween-80
[24] = dose: 25.0 mg/kg/injection, schedule: Q04DX003 (ip), vehicle: Klucel (hydroxypropylcellulose) (HPC)
[25] = dose: 50.0 mg/kg/injection, schedule: Q04DX003 (ip), vehicle: Klucel (hydroxypropylcellulose) (HPC)
[26] = dose: 100.0 mg/kg/injection, schedule: Q01DX001 (ip), vehicle: saline
[27] = dose: 200.0 mg/kg/injection, schedule: Q01DX001 (ip), vehicle: saline

Measured: T/C

CCOC(=O)c1cc(OC(C)=O)c2c(ccc3cc(OC)ccc32)c1CC
inactive: [1] 91 % of control | [2] 93 % of control | [3] 96 % of control | [4] 91 % of control | [5] 91 % of control

O=c1ccc([N+](=O)[O-])c[nH]1
inactive: [1] 97 % of control and 93 % of control | [2] 105 % of control | dose: 200.0 mg/kg/injection, schedule: Q01DX009 (ip), vehicle: saline 101 % of control and 100 % of control | [3] 96 % of control and 103 % of control | [4] 105 % of control and 95 % of control | [5] 94 % of control and 96 % of control

O=C(COc1ccccc1)NCCBr
inactive: [6] 96 % of control | [7] 110 % of control | dose: 133.0 mg/kg/injection, schedule: Q04DX003 (ip), vehicle: Klucel (hydroxypropylcellulose) (HPC) 98 % of control | [8] 102 % of control | [9] 98 % of control | dose: 300.0 mg/kg/injection, schedule: Q04DX003 (ip), vehicle: Klucel (hydroxypropylcellulose) (HPC) 98 % of control | [10] 95 % of control | [11] 101 % of control

O=C(CC(c1ccccc1)N1CCN(c2ccccc2)CC1)c1ccc(F)cc1 (centres undefined)
inactive: dose: 12.5 mg/kg/injection, schedule: Q01DX009 (ip), vehicle: Klucel (hydroxypropylcellulose) (HPC) 88 % of control | [12] 93 % of control | [13] 93 % of control | [14] 87 % of control | dose: 400.0 mg/kg/injection, schedule: Q01DX009 (ip), vehicle: gum acacia 89 % of control

Oc1c(Br)cc(Br)cc1C=Nc1ccc(I)cc1.Oc1c(Br)cc(Br)cc1C=Nc1ccc(I)cc1.[Co]
inactive: [15] 98 % of control | [16] 92 % of control

O=C(OCCCCCCCOC(=O)c1ccc([N+](=O)[O-])cc1)c1ccc([N+](=O)[O-])cc1
inactive: [17] 101 % of control | [18] 96 % of control | [19] 95 % of control

O=C1NC2(c3ccccc3)CCCCC2O1 (centres undefined)
inactive: dose: 75.0 mg/kg/injection, schedule: Q01DX001 (ip), vehicle: acetone 98 % of control and 92 % of control | dose: 150.0 mg/kg/injection, schedule: Q01DX001 (ip), vehicle: acetone 102 % of control | dose: 300.0 mg/kg/injection, schedule: Q01DX001 (ip), vehicle: acetone 100 % of control and 89 % of control

CC(C)(C)C1CCC(C(=O)O)CC1 (centres undefined)
inactive: dose: 50.0 mg/kg/injection, schedule: Q01DX009 (ip), vehicle: gum acacia 102 % of control | dose: 100.0 mg/kg/injection, schedule: Q01DX009 (ip), vehicle: gum acacia 103 % of control | [20] 95 % of control and 97 % of control | dose: 100.0 mg/kg/injection, schedule: Q04DX002 (ip), vehicle: gum acacia 100 % of control | dose: 100.0 mg/kg/injection, schedule: Q04DX003 (ip), vehicle: gum acacia 106 % of control | [15] 102 % of control and 89 % of control | [14] 105 % of control | [21] 94 % of control and 97 % of control | dose: 200.0 mg/kg/injection, schedule: Q04DX002 (ip), vehicle: gum acacia 110 % of control | dose: 200.0 mg/kg/injection, schedule: Q04DX003 (ip), vehicle: gum acacia 106 % of control | [16] 100 % of control and 94 % of control | [22] 97 % of control | dose: 400.0 mg/kg/injection, schedule: Q04DX002 (ip), vehicle: gum acacia 110 % of control | [23] 89 % of control

CCCCCCCCCCCCCCCC(=O)NNC(C)C
inactive: [12] 94 % of control | [24] 94 % of control | [13] 95 % of control | [25] 91 % of control | [6] 86 % of control | [7] 105 % of control | [8] 91 % of control | [9] 89 % of control | [10] 92 % of control | [11] 89 % of control

CCC(C)(NC(N)=O)c1ccccc1 (centres undefined)
inactive: [26] 101 % of control | [27] 104 % of control

O=C(O)/C=C/C(=O)Nc1ccc([N+](=O)[O-])cc1
inactive: [20] 101 % of control | [15] 107 % of control | [21] 102 % of control | [16] 101 % of control | [22] 95 % of control | [23] 107 % of control

CC(C)C1=CC23CCC4C(C)(C(N)=O)CCCC4(C)C2CC1C1C(=O)NC(=O)C13 (centres undefined)
inactive: [7] 97 % of control | [9] 95 % of control | [11] 92 % of control

N#CC(C#N)=Cc1ccc(C=C(C#N)C#N)cc1
inactive: [24] 98 % of control | [13] 103 % of control | [25] 98 % of control | [6] 86 % of control | [7] 98 % of control and 105 % of control | [9] 100 % of control | [11] 108 % of control

O=C(Nc1ccc(Cl)c(Cl)c1)c1ccc(C(=O)Nc2ccc(Cl)c(Cl)c2)cc1
inactive: [6] 91 % of control | [8] 92 % of control | [10] 86 % of control

Cc1ccc(NC(=S)N(CCC#N)C(C)C)cc1C
inactive: [6] 110 % of control | [8] 106 % of control | [10] 103 % of control

CC(C)CC1NC(=O)C(NC(=O)C(Cc2ccccc2)N(C)C)C(C(C)C)Oc2ccc(cc2)/C=C\NC1=O (centres undefined)
inactive: dose: 50.0 mg/kg/injection, schedule: Q01DX001 (ip), vehicle: Klucel (hydroxypropylcellulose) (HPC) 90 % of control | dose: 100.0 mg/kg/injection, schedule: Q01DX001 (ip), vehicle: Klucel (hydroxypropylcellulose) (HPC) 90 % of control | dose: 200.0 mg/kg/injection, schedule: Q01DX001 (ip), vehicle: Klucel (hydroxypropylcellulose) (HPC) 93 % of control

Cc1nc2ccc(N(C)C)cc2c2c1Cc1c(C)nc3ccc(N(C)C)cc3c1O2
inactive: [20] 95 % of control | [21] 92 % of control | [22] 110 % of control

O=C(O)CCCCCCCCC(=O)c1ccccc1
inactive: [20] 95 % of control | [21] 91 % of control | [22] 95 % of control

COc1cc(C)c(C(=O)c2ccccc2NS(=O)(=O)c2ccc(C)cc2)cc1OC
inactive: dose: 50.0 mg/kg/injection, schedule: Q01DX001 (ip), vehicle: other 98 % of control | [17] 95 % of control | [18] 92 % of control | [19] 104 % of control

CCCCCOC(=O)C(C(=O)OCCCCC)(C(=O)OCCCCC)C(=O)OCCCCC
inactive: [26] 100 % of control | [27] 104 % of control | dose: 400.0 mg/kg/injection, schedule: Q01DX001 (ip), vehicle: saline 95 % of control

C/C(=N\N=C(N)N)c1ccc(NC(N)=S)cc1
inactive: dose: 20.0 mg/kg/injection, schedule: Q01DX005 (ip), vehicle: saline 106 % of control | dose: 40.0 mg/kg/injection, schedule: Q01DX005 (ip), vehicle: saline 97 % of control

O=[N+]([O-])/C=C\c1cccc(OCc2ccccc2)c1
inactive: dose: 50.0 mg/kg/injection, schedule: Q01DX001 (ip), vehicle: carboxymethylcellulose (CMC) 101 % of control | dose: 100.0 mg/kg/injection, schedule: Q01DX001 (ip), vehicle: carboxymethylcellulose (CMC) 103 % of control | dose: 200.0 mg/kg/injection, schedule: Q01DX001 (ip), vehicle: carboxymethylcellulose (CMC) 92 % of control | dose: 400.0 mg/kg/injection, schedule: Q01DX001 (ip), vehicle: carboxymethylcellulose (CMC) 97 % of control

CCOC(=O)c1ccc(NC(=O)Nc2cccc(O)c2)cc1
inactive: dose: 100.0 mg/kg/injection, schedule: Q01DX001 (ip), vehicle: saline with Tween-80 89 % of control | [20] 95 % of control | dose: 100.0 mg/kg/injection, schedule: Q04DX002 (ip), vehicle: saline with Tween-80 99 % of control and 110 % of control | [15] 95 % of control | dose: 200.0 mg/kg/injection, schedule: Q01DX001 (ip), vehicle: saline with Tween-80 98 % of control | [21] 99 % of control | dose: 200.0 mg/kg/injection, schedule: Q04DX002 (ip), vehicle: saline with Tween-80 99 % of control and 106 % of control | [16] 93 % of control | dose: 400.0 mg/kg/injection, schedule: Q01DX001 (ip), vehicle: saline with Tween-80 94 % of control | [22] 95 % of control | dose: 400.0 mg/kg/injection, schedule: Q04DX002 (ip), vehicle: saline with Tween-80 103 % of control and 104 % of control | [23] 94 % of control
